In patent US8283323B2, “Withanolide compounds as inhibitors of fibrosis and identification of molecular targets for anti-fibrotic drug development” (University of Kentucky Research Foundation, priority 2006, dated 2012):

Key:
[1] = system: cornea injured by 0.1 N sodium hydroxide (corneal opacity, neovascularization); experiment: alkali burn corneal injury model, digital images of corneas; format: in vivo, C57BL6 mice; conditions: 2.5 mg/kg/d i.p. daily for 6 d after alkali burn, versus vehicle (DMSO)
Method: (§1) The corneas of C57BL6 mice under anesthesia were injured by application of 0.1 N sodium hydroxide and subsequently the epithelial cell layer from the cornea and limbus was removed by scraping. Withaferin A (WA) (2.5 mg/kg/d; 4 mice) or vehicle (DMSO; 4 mice) was provided daily thereafter by i.p. injection for 6 d. Digital images of the corneas were obtained to assess the extent of tissue pathology. […] These compelling results invoke the query whether WA targets the UPP in vivo. Mice (4 per group) were injured and treated for the first 4 days with a different dose of WA or vehicle daily by i.p. injection. On day 7, mice were sacrificed and corneal buttons were isolated from injured healing corneas; equal amounts of protein from each group were analyzed by western blotting. Uninjured fellow eyes from vehicle-treated mice served as controls.

native I-kappa-B-alpha = experiment: western blotting of corneal buttons from injured healing corneas: I-kappa-B-alpha; format: in vivo, mice; conditions: different doses i.p. daily for first 4 days, corneas taken day 7, western blot
Method: as §1

HO-1 = experiment: western blotting of corneal buttons from injured healing corneas: HO-1; format: in vivo, mice; conditions: i.p. daily for first 4 days, corneas taken day 7, western blot
Method: as §1

[2] = system: ubiquitinated transketolase (70 kDa ubiquitinated protein); experiment: immunoblotting / Coomassie blue staining of corneal protein, angioinflammation corneal model: ubiquitinated transketolase; format: in vivo, mice
Method: (§2) To investigate the levels and timing of expression of TKT we performed time-course experiments using the angioinflammation corneal model of tissue repair. Groups of mice ([…]) were injured and treated every day with vehicle (Veh), 2.5 mg/kg/d WA or 2.0 mg/kg/d epoxomicin (20S proteasome inhibitor) and sacrificed on day 4 and 6 post-inflammation. In a similar experiment, mice were treated every day with vehicle or 2.5 mg/kg/d WA and sacrificed on days 3 and 5 post-injury. Equal amounts of protein from pooled samples of each group were subjected to immunoblotting or Coomassie blue staining after fractionation on 4-20% gradient polyacrylamide gels (BioRad).
(§3) The western blots of the corneal samples were re-probed with an anti-mouse TKT antibody. […] Because of the strong Ub-immunoreactivity of TKT in injured corneas, we speculate that this protein's N-terminal antigenic site is being masked by ubiquitination in the injury-related samples (the TKT antibody reacts with the N-terminal 20-amino acid portion of native TKT).

transketolase (TKT) = experiment: western blot with anti-mouse TKT antibody and immunohistochemical analysis of mouse eyes; format: in vivo, mice; conditions: injured corneas; for TKT detected by anti-mouse TKT antibody on western blot (longer film exposure): WA 2.5 mg/kg/d or epoxomicin 2.0 mg/kg/d, not detected in vehicle
Method: as §2, §3
To investigate the localization of TKT, immunohistochemical analysis of mouse eyes was conducted. TKT expression is localized to the epithelium of uninjured mouse eyes, whereas TKT expression in corneas of 4 d vehicle-treated mice is almost undetectable.

[3] = system: ubiquitin proteasome pathway (UPP); experiment: UPP functions in the alkali burn injury model of corneal angiofibrotic disease; format: in vivo
Text: The abundant corneal protein tissue transketolase (TKT) is believed to play an important role in corneal homeostasis. TKT is also a target of the UPP and its reduced expression is believed to contribute to corneal fibrosis. In the present invention, targeting the UPP in injured tissue can redirect the fibrotic repair process to acquire regenerative healing. Withanolides and related compounds, such as withaferin A, withanolide D and ixocarpalactone, are small molecule inhibitors that have potent UPP-targeting activity. […] There is also a reduction in the levels of ubiquitinated transketolase (TKT), an abundant corneal protein implicated in fibrogenesis.

CC1=C(CO)C(=O)O[C@@H]([C@@H](C)[C@H]2CC[C@H]3[C@@H]4C[C@H]5O[C@]56[C@@H](O)C=CC(=O)[C@]6(C)[C@H]4CC[C@]23C)C1 [WA, Withaferin A]
corneal opacity [1]: dramatically reduced
neovascularization (growth of new blood vessels in cornea) [1]: dramatically reduced
corneal expression of native I-kappa-B-alpha (native I-kappa-B-alpha): dose-dependently inhibits
HO-1 expression in cornea (HO-1): potently downregulated HO-1 expression to almost undetectable levels
expression of 70 kDa ubiquitinated protein (UbTKT) in cornea, ubiquitin immunoblot ([2]; 2.5 mg/kg/d every day, injured corneas, versus vehicle): abundantly expressed in vehicle-treated mouse corneas compared to corneas from WA-treated mice
levels of the 70 kDa protein by Coomassie blue staining ([2]; uninjured, vehicle and WA-treated samples, 3-, 5-, 4- and 6-day time-points): not significantly altered
TKT staining in cornea, immunohistochemical analysis (transketolase (TKT); 4 d, compared with uninjured and vehicle-treated): present, although at levels lower than that of uninjured cornea
TKT detected by anti-mouse TKT antibody on western blot (longer film exposure) (transketolase (TKT)): presence of the TKT
UPP functions [3]: potent downregulation

CC[C@H](C)[C@H](NC(=O)[C@H]([C@@H](C)CC)N(C)C(C)=O)C(=O)N[C@H](C(=O)N[C@@H](CC(C)C)C(=O)[C@@]1(C)CO1)[C@@H](C)O [epoxomicin, reference compound]
TKT detected by anti-mouse TKT antibody on western blot (longer film exposure) (transketolase (TKT)): presence of the TKT
